Laboratory results as given in patent US20230021483A1, “[…] […] METHOD AND CLASSIFICATION OF PHARMACEUTICAL COMPONENTS BY USING TRANSCRIPTOMES” (National Institutes of Biomedical Innovation, Health and …, priority 2016, published 2023).

Tests used:
[1] = test system: liver (LV); assay: Whole organ transcriptome (GeneChip microarray) of liver 6 h after adjuvant administration: sDEGs, hierarchical clustering; format: in vivo, C57BL/6 mice; conditions: liver; as to adjuvant group (cluster) in LV: key: G1 (interferon signaling); G2 (metabolism of lipids and lipoproteins); G3 (response to stress); G4 (response to wounding); G5 (phosphate-containing compound metabolic process); G6 (phagosome)
[2] = test system: adjuvant-associated biological themes in LV, SP, LN
Excerpt: A defined sets of genes were selected according to specified criteria (e.g., FC, PA-call, threshold values). Their functional enrichment values were then obtained from TargetMine (Chen, Y. A., Tripathi, L. P. & Mizuguchi, K. PloS one 6, e17844 (2011)) (http://targetmine.mizuguchilab.org/) using the API interface. The following resources were used throughout the analysis via TargetMine Interface (GO, GOSlim, Integrated Pathway, KEGG, Reactome, and the NCI pathway). The Holm-Bonferroni method was used for multiple testing corrections.
Whole organ transcriptome data for each organ from each mouse were analyzed as follows to obtain biological themes for individual samples from each adjuvant-administered group of three mice. […] A set of Pj genes was first defined, where eij/ei(c)>2.0. Biological themes enriched within Pj were then identified using TargetMine (Chen, Y. A. et al., PloS one 6, e17844 (2011)) (http://targetmine.mizuguchilab.org/). Tj denote the resulting list of biological themes, with associated p-values from Fischer's exact test.
Next, the biological themes called by all the individual samples in the group were scored as follows. Having obtained three lists (T1, T2 and T3) for a given experimental condition, a consensus list T of themes was created as T={(t1, p1), (t2, p2), . . . }, where ti is a biological theme that appears in all of T1, T2 and T3, and pi is the smallest of the associated p-values. Only the themes with the p-value of <0.05 were included in T.
To summarize the biological themes in T further, a list of terms considered to be associated with adjuvant activity in general was separately prepared. AT={at1, at2, . . . }, where ati is a pre-selected adjuvant-associated term (e.g., “stress” or “cytokine”). Finally, an enrichment score S for an adjuvant-associated term ati was defined as: S(ati)=Σ−log(pj), where the name of tj in T includes a term ati as a substring and pj is the associated p-value.
This scoring scheme summarizes the relative enrichment of pre-selected adjuvant-associated terms in genes responding to each adjuvant in each organ.

Cc1ccc2c(=O)c3cccc(CC(=O)O)c3oc2c1C [DMXAA, 5,6-dimethylxanthenone-4-acetic acid]
34.9: GO annotation: innate immune response (Term: innate immune response) ([2]; LV, ID)
26.5: GO annotation: response to cytokine (Term: cytokine) ([2]; LV, ID)
26.8: GO annotation: regulation of defense response (Term: defense response) ([2]; LV, ID)
7.3: GO annotation: regulation of interferon-alpha production (Term: IFN alpha) ([2]; LV, ID)
3.49: GO annotation: regulation of response to wounding (Term: wounding) ([2]; LV, ID)
8.37: GO annotation: regulation of cytokine production (Term: cytokine) ([2]; LV, ID)
162: Number of gene probes with statistically significant changes (sDEGs), LV, Up ([1]; i.d. administration, fold change >1.5, p<0.01, customized PA call=1, 6 h after adjuvant)
10.3: IFN gamma: response to interferon-gamma ([2]; LV, ID)
19: GO annotation: positive regulation of defense response (Term: defense response) ([2]; LV, ID)
7.37: IFN gamma: cellular response to interferon-gamma ([2]; LV, ID)
40.4: GO annotation: response to stress (Term: stress) ([2]; LV, ID)
6.04: GO annotation: cell death (Term: cell death) ([2]; LV, ID)
7.85: GO annotation: positive regulation of interferon-alpha production (Term: IFN alpha) ([2]; LV, ID)
19.8: GO annotation: regulation of innate immune response (Term: innate immune response) ([2]; LV, ID)
8.39: GO annotation: immune response-regulating signaling pathway (Term: immune response) ([2]; LV, ID)
21: GO annotation: regulation of response to stress (Term: stress) ([2]; LV, ID)
48.4: GO annotation: defense response (Term: defense response) ([2]; LV, ID)
9.24: GO annotation: activation of innate immune response (Term: innate immune response) ([2]; LV, ID)
0: GO annotation: Cytokine-cytokine receptor interaction (Term: cytokine) ([2]; LV, ID) | GO annotation: I-kappaB kinase/NF-kappaB signaling (Term: NF-kappa B signaling pathway) ([2]; LV, ID) | GO annotation: acute inflammatory response (Term: inflammatory response) ([2]; LV, ID) | GO annotation: adaptive immune response (Term: adaptive immune response) ([2]; LV, ID) | GO annotation: apoptotic process (Term: apoptosis) ([2]; LV, ID) | GO annotation: apoptotic signaling pathway (Term: apoptosis) ([2]; LV, ID) | GO annotation: cell chemotaxis (Term: chemotaxis) ([2]; LV, ID) | GO annotation: cell migration (Term: migration) ([2]; LV, ID) | GO annotation: cellular response to stress (Term: stress) ([2]; LV, ID) | GO annotation: chemokine production (Term: chemokine) ([2]; LV, ID) | GO annotation: chemokine-mediated signaling pathway (Term: chemokine) ([2]; LV, ID) | GO annotation: chemotaxis (Term: chemotaxis) ([2]; LV, ID) | GO annotation: cytokine biosynthetic process (Term: cytokine) ([2]; LV, ID) | GO annotation: cytokine metabolic process (Term: cytokine) ([2]; LV, ID) | GO annotation: cytokine secretion (Term: cytokine) ([2]; LV, ID) | GO annotation: cytokine-mediated signaling pathway (Term: cytokine) ([2]; LV, ID) | GO annotation: death (Term: cell death) ([2]; LV, ID) | GO annotation: defense response to Gram-positive bacterium (Term: defense response) ([2]; LV, ID) | GO annotation: defense response to bacterium (Term: defense response) ([2]; LV, ID) | GO annotation: granulocyte chemotaxis (Term: chemotaxis) ([2]; LV, ID) | GO annotation: granulocyte migration (Term: migration) ([2]; LV, ID) | GO annotation: inflammatory response (Term: inflammatory response) ([2]; LV, ID) | GO annotation: intrinsic apoptotic signaling pathway (Term: apoptosis) ([2]; LV, ID) | GO annotation: leukocyte chemotaxis (Term: chemotaxis) ([2]; LV, ID) | GO annotation: leukocyte migration (Term: migration) ([2]; LV, ID) | GO annotation: leukocyte migration involved in inflammatory response (Term: inflammatory response) ([2]; LV, ID) | GO annotation: lymphocyte chemotaxis (Term: chemotaxis) ([2]; LV, ID) | GO annotation: lymphocyte migration (Term: migration) ([2]; LV, ID) | GO annotation: myeloid leukocyte migration (Term: migration) ([2]; LV, ID) | GO annotation: negative regulation of apoptotic process (Term: apoptosis) ([2]; LV, ID) | GO annotation: negative regulation of cell death (Term: cell death) ([2]; LV, ID) | GO annotation: negative regulation of cytokine production (Term: cytokine) ([2]; LV, ID) | GO annotation: negative regulation of defense response (Term: defense response) ([2]; LV, ID) | GO annotation: negative regulation of immune response (Term: immune response) ([2]; LV, ID) | GO annotation: negative regulation of innate immune response (Term: innate immune response) ([2]; LV, ID) | GO annotation: negative regulation of programmed cell death (Term: cell death) ([2]; LV, ID) | GO annotation: neutrophil chemotaxis (Term: chemotaxis) ([2]; LV, ID) | GO annotation: neutrophil migration (Term: migration) ([2]; LV, ID) | GO annotation: positive regulation of I-kappaB kinase/NF-kappaB signaling (Term: NF-kappa B signaling pathway) ([2]; LV, ID) | GO annotation: positive regulation of adaptive immune response (Term: adaptive immune response) ([2]; LV, ID) | GO annotation: positive regulation of apoptotic process (Term: apoptosis) ([2]; LV, ID) | GO annotation: positive regulation of cell death (Term: cell death) ([2]; LV, ID) | GO annotation: positive regulation of cell migration (Term: migration) ([2]; LV, ID) | GO annotation: positive regulation of chemokine production (Term: chemokine) ([2]; LV, ID) | GO annotation: positive regulation of chemotaxis (Term: chemotaxis) ([2]; LV, ID) | GO annotation: positive regulation of cytokine biosynthetic process (Term: cytokine) ([2]; LV, ID) | GO annotation: positive regulation of inflammatory response (Term: inflammatory response) ([2]; LV, ID) | GO annotation: positive regulation of leukocyte chemotaxis (Term: chemotaxis) ([2]; LV, ID) | GO annotation: positive regulation of leukocyte migration (Term: migration) ([2]; LV, ID) | GO annotation: positive regulation of programmed cell death (Term: cell death) ([2]; LV, ID) | GO annotation: positive regulation of response to wounding (Term: wounding) ([2]; LV, ID) | GO annotation: positive regulation of tumor necrosis factor superfamily cytokine (Term: cytokine) ([2]; LV, ID) | GO annotation: production of molecular mediator of immune response (Term: immune response) ([2]; LV, ID) | GO annotation: programmed cell death (Term: cell death) ([2]; LV, ID) | GO annotation: regulation of I-kappaB kinase/NF-kappaB signaling (Term: NF-kappa B signaling pathway) ([2]; LV, ID) | GO annotation: regulation of adaptive immune response (Term: adaptive immune response) ([2]; LV, ID) | GO annotation: regulation of apoptotic process (Term: apoptosis) ([2]; LV, ID) | GO annotation: regulation of apoptotic signaling pathway (Term: apoptosis) ([2]; LV, ID) | GO annotation: regulation of cell death (Term: cell death) ([2]; LV, ID) | GO annotation: regulation of cell migration (Term: migration) ([2]; LV, ID) | GO annotation: regulation of chemokine production (Term: chemokine) ([2]; LV, ID) | GO annotation: regulation of chemotaxis (Term: chemotaxis) ([2]; LV, ID) | GO annotation: regulation of cytokine biosynthetic process (Term: cytokine) ([2]; LV, ID) | GO annotation: regulation of defense response to virus (Term: defense response) ([2]; LV, ID) | GO annotation: regulation of defense response to virus by host (Term: defense response) ([2]; LV, ID) | GO annotation: regulation of inflammatory response (Term: inflammatory response) ([2]; LV, ID) | GO annotation: regulation of intrinsic apoptotic signaling pathway (Term: apoptosis) ([2]; LV, ID) | GO annotation: regulation of leukocyte chemotaxis (Term: chemotaxis) ([2]; LV, ID) | GO annotation: regulation of leukocyte migration (Term: migration) ([2]; LV, ID) | GO annotation: regulation of programmed cell death (Term: cell death) ([2]; LV, ID) | GO annotation: regulation of tumor necrosis factor superfamily cytokine production (Term: cytokine) ([2]; LV, ID) | GO annotation: response to wounding (Term: wounding) ([2]; LV, ID) | GO annotation: taxis (Term: chemotaxis) ([2]; LV, ID) | GO annotation: tumor necrosis factor superfamily cytokine production (Term: cytokine) ([2]; LV, ID) | IFN beta: interferon-beta production ([2]; LV, ID) | IFN gamma: interferon-gamma production ([2]; LV, ID) | IFN gamma: regulation of interferon-gamma production ([2]; LV, ID) | interleukin-6: interleukin-6 production ([2]; LV, ID) | interleukin-6: positive regulation of interleukin-6 production ([2]; LV, ID) | interleukin-6: regulation of interleukin-6 production ([2]; LV, ID) | interleukin-12: interleukin-12 production ([2]; LV, ID) | interleukin-12: positive regulation of interleukin-12 production ([2]; LV, ID) | interleukin-12: regulation of interleukin-12 production ([2]; LV, ID) | GO annotation: adaptive immune response based on somatic recombination of immune receptors built from immunoglobulin superfamily domains (Term: adaptive immune response) ([2]; mouse, in vivo) | GO annotation: regulation of adaptive immune response based on somatic recombination of immune receptors built from immunoglobulin superfamily domains (Term: adaptive immune response) ([2]; mouse, in vivo)
5.67: GO annotation: activation of immune response (Term: immune response) ([2]; LV, ID)
3.52: GO annotation: defense response to protozoan (Term: defense response) ([2]; LV, ID)
25.5: GO annotation: immune response (Term: immune response) ([2]; LV, ID)
9.3: GO annotation: cellular response to interferon-alpha (Term: IFN alpha) ([2]; LV, ID)
11.3: GO annotation: response to interferon-alpha (Term: IFN alpha) ([2]; LV, ID)
3.77: GO annotation: NF-kappa B signaling pathway (Term: NF-kappa B signaling pathway) ([2]; LV, ID)
17.9: IFN beta: response to interferon-beta ([2]; LV, ID)
10.7: GO annotation: TNF signaling pathway (Term: TNF signaling pathway) ([2]; LV, ID)
12.4: GO annotation: positive regulation of innate immune response (Term: innate immune response) ([2]; LV, ID) | GO annotation: regulation of immune response (Term: immune response) ([2]; LV, ID)
7.86: GO annotation: positive regulation of cytokine production (Term: cytokine) ([2]; LV, ID)
5.98: GO annotation: immune response-activating signal transduction (Term: immune response) ([2]; LV, ID)
6.98: GO annotation: cytokine production (Term: cytokine) ([2]; LV, ID)
16.7: GO annotation: cellular response to cytokine stimulus (Term: cytokine) ([2]; LV, ID) | IFN beta: cellular response to interferon-beta ([2]; LV, ID)
15: GO annotation: defense response to virus (Term: defense response) ([2]; LV, ID)
5.66: IFN beta: positive regulation of interferon-beta production ([2]; LV, ID)
101: Number of gene probes with statistically significant changes (sDEGs), LV, Down ([1]; i.d. administration, fold change <0.667, p<0.01, customized PA call=1, 6 h after adjuvant)
15.4: GO annotation: Cytokine-cytokine receptor interaction|Endocytosis (Term: cytokine) ([2]; LV, ID)
3.09: IFN beta: regulation of interferon-beta production ([2]; LV, ID)
6.81: GO annotation: interferon-alpha production (Term: IFN alpha) ([2]; LV, ID)
G1: adjuvant group (cluster) in LV ([1]; hierarchical clustering)
23.6: GO annotation: defense response to other organism (Term: defense response) ([2]; LV, ID)
10.2: GO annotation: positive regulation of immune response (Term: immune response) ([2]; LV, ID)
7.99: GO annotation: innate immune response-activating signal transduction (Term: innate immune response) ([2]; LV, ID)
